According to US7390833B2, “Method for treating ADAMTS-5-associated disease” (Wyeth, priority 2003, dated 2008):

How the values were obtained:
[1] = molecular target: T1, ADAMTS-5 (Agg-2), purified recombinant human Aggrecanase-2 (Ag2t-Phe628-Strep) (Homo sapiens, UniProt Q9UNA0); test: Inhibition of aggrecanase activity of ADAMTS-5 (Agg-2), continuous fluorescent quenched-peptide assay (WAKB-5 substrate); format: biochemical; details: concentration that inhibits 50% of the aggrecanase activity of ADAMTS-5 (Agg-2); substrate 25 μM, pH 7.4, room temperature
T1 construct: the form used is denoted as Ag2t-Phe628-Strep (MW=41,737)
T1 sequence (Q9UNA0 262-628): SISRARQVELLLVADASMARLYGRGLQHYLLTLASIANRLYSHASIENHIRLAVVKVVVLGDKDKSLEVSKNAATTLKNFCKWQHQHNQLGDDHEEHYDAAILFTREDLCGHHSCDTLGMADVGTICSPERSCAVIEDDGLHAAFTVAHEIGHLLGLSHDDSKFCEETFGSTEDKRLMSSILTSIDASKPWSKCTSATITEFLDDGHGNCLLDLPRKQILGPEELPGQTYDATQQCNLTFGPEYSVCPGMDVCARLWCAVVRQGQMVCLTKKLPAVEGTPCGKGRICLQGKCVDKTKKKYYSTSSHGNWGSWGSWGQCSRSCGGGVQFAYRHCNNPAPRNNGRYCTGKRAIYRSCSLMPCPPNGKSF
Procedure: The biaryl sulfonamide compounds of the present invention were tested for their ability to inhibit the aggrecanase activity of ADAMTS-4 (Agg-1) and ADAMTS-5 (Agg-2).
A continuous assay was used in which the substrate upon which Agg-1 and […] acts is a synthetic peptide containing a fluorescent group that is quenched by energy transfer. Cleavage of the peptide by the aggrecanase enzyme results in a large increase in fluorescence. The initial rates of the reaction are compared to the initial rates of reactions containing the biaryl sulfonamide compounds in order to assess the inhibitor potency of the compounds.
The source of enzyme in the assay is purified recombinant human Aggrecanase-2. More specifically, the form used is denoted as Ag2t-Phe628-Strep (MW=41,737). This form is truncated relative to the full-length enzyme and contains an affinity tag. Aliquots of this enzyme were stored at −80° C. in 25 mM Tris (pH 8.0), 100 mM NaCl, 5 mM CaCl2, 10 μM ZnCl2, 10% glycerol.
The substrate in the assay is a synthetic peptide that is designed after a portion of brevican, one of the naturally occurring substrates of Aggrecanase-2. […] WAKB-5 (mass=1740) was custom synthesized by AnaSpec, Inc. (San Jose, Calif.) and was >95% pure based on HPLC analysis. […] Stock solutions of the substrate were prepared with MilliQ water and aliquots were stored at −80° C. The concentration of this substrate stock was spectrophotometrically determined using the extinction coefficient at 354 nm of 18,172 M^−1 cm^−1.
The assay buffer (pH 7.4) consisted of 50 mM Hepes, 100 mM NaCl, 5 mM CaCl2, 0.1% CHAPS, 5% glycerol. Each well of black polystyrene 96-well or 384-well plates contained a reaction consisting of assay buffer, purified Agg-2 (diluted with assay buffer), and varied concentrations of inhibitor (prepared by serial dilution in DMSO in 96-well polypropylene plates). The plates were then incubated at room temperature for 10 minutes. The enzymatic reactions were initiated by adding substrate to a final concentration of 25 μM and were mixed by pipetting up and down. The initial rates of the cleavage reactions were determined at room temperature with a fluorescence plate reader immediately after substrate addition.
Analysis of the results was conducted by generating a plot of time vs. RFU for each sample. This was used as the “progress curve” of the reaction. The slope for the portion of the progress curve that is most linear was then determined. This slope (RFU/min) was used as the initial rate of the reaction. Plots of the inhibitor concentration vs. the initial cleavage rate were then fit to the following equation: y=Vmax*(1−(x^n/(K^n+x^n))), whereby x=inhibitor concentration, y=initial rate, Vmax=initial rate in the absence of inhibitor, n=slope factor, and K=IC50 for the inhibition curve.

ADAMTS-4 (Agg-1) = molecular target: T2, ADAMTS-4 (Agg-1) (Homo sapiens, UniProt O75173); test: Inhibition of aggrecanase activity of ADAMTS-4 (Agg-1), continuous fluorescent quenched-peptide assay; format: biochemical; details: concentration that inhibits 50% of the aggrecanase activity of ADAMTS-4 (Agg-1);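 note: purified enzyme preincubated 10 min with inhibitor at room temperature, then initial substrate cleavage rate (RFU/min) read by fluorescence plate reader versus the uninhibited rate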
T2 sequence (O75173 213-837): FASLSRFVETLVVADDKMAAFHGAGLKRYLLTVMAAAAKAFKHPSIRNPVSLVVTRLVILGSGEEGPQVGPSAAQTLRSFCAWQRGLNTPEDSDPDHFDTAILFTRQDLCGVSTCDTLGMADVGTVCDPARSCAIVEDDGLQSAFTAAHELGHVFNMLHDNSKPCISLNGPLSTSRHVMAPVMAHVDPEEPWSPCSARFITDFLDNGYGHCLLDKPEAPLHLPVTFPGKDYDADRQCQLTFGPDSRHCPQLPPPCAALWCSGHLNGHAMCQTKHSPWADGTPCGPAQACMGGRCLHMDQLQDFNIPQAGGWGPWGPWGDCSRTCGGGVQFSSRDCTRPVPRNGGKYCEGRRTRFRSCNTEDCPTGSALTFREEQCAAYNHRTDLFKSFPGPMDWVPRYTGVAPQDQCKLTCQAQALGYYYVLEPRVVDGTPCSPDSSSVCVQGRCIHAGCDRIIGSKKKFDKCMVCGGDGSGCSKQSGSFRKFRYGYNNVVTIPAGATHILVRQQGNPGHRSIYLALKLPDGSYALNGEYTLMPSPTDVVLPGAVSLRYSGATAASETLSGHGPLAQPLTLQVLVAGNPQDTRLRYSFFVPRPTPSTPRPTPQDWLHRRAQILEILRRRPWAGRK

| IC50 [1] | IC50 (ADAMTS-4 (Agg-1)) | Structure (SMILES) |
| --- | --- | --- |
| > 200 µM | 0.1 µM | CC(C)[C@@H](NS(=O)(=O)c1ccc(-c2ccc(COc3ccc(Oc4ccccc4)cc3)cc2)cc1F)C(=O)O |
| > 100 µM | 0.3 µM | COc1ccc(C(=O)c2ccc(OCc3ccc(-c4ccc(S(=O)(=O)N[C@@H](C(=O)O)C(C)C)cc4)cc3)cc2)cc1 |
| 67 µM | 1.9 µM | CC(C)[C@@H](NS(=O)(=O)c1ccc(-c2ccc(COc3ccc(C(=O)N4CCCC4)cc3)cc2)cc1)C(=O)O |
| 13 µM | 1.1 µM | CC(C)[C@@H](NS(=O)(=O)c1ccc(-c2ccc(COc3cccc(O)c3)cc2)cc1)C(=O)O |
| 12.6 µM | 1 µM | CC(=O)c1cccc(OCc2ccc(-c3ccc(S(=O)(=O)N[C@@H](C(=O)O)C(C)C)cc3)cc2)c1 |
| 12 µM | 1.9 µM | CC(C)[C@@H](NS(=O)(=O)c1ccc(-c2ccc(COc3cccc4[nH]ccc34)cc2)cc1)C(=O)O |
| 11.3 µM | 1.7 µM | CC(C)[C@@H](NS(=O)(=O)c1ccc(-c2ccc(COc3ccc(F)cc3)cc2)cc1)C(=O)O |
| 11.2 µM | 0.9 µM | Cc1cc(-c2ccc(COc3ccc4c(c3)CCCC4=O)cc2)ccc1S(=O)(=O)N[C@@H](C(=O)O)C(C)C |
| 10.7 µM | 1.6 µM | COc1ccc(OCc2ccc(-c3ccc(S(=O)(=O)N[C@@H](C(=O)O)C(C)C)cc3)cc2)cc1 |
| 10.6 µM | 0.9 µM | CC(C)[C@@H](NS(=O)(=O)c1ccc(-c2ccc(COc3ccc(Oc4ccccn4)cc3)cc2)cc1)C(=O)O |
| 8.2 µM |  | CC(C)[C@@H](NS(=O)(=O)c1ccc(-c2ccc(COc3cccc(F)c3)cc2)cc1)C(=O)O |
| 7.5 µM | 0.2 µM | CC(C)[C@@H](NS(=O)(=O)c1ccc(-c2ccc(COc3ccc4c(c3)CCCC4=O)cc2)cc1)C(=O)O |
| 7 µM | 0.4 µM | CC(=O)c1ccc(OCc2ccc(-c3ccc(S(=O)(=O)N[C@@H](C(=O)O)C(C)C)cc3)cc2)cc1 |
| 6.6 µM | 0.2 µM | CC(C)[C@@H](NS(=O)(=O)c1ccc(-c2ccc(COc3ccc4c(c3)CCCC4=O)cc2)cc1F)C(=O)O |
| 6.5 µM | 0.4 µM | CC(C)[C@@H](NS(=O)(=O)c1ccc(-c2ccc(COc3cccc(O)n3)cc2)cc1)C(=O)O |
| 6.3 µM | 1.9 µM | COc1ccc(COc2ccc(-c3ccc(S(=O)(=O)N[C@@H](C(=O)O)C(C)C)cc3)cc2)cc1 |
| 5.8 µM | 1.8 µM | COc1cccc(OCc2ccc(-c3ccc(S(=O)(=O)N[C@@H](C(=O)O)C(C)C)cc3)cc2)c1 |
| 5.4 µM | 0.6 µM | CC(C)[C@@H](NS(=O)(=O)c1ccc(-c2ccc(COc3ccc(NC(=O)OC(C)(C)C)cc3)cc2)cc1)C(=O)O |
| 5 µM | 2.6 µM | CC(C)[C@@H](NS(=O)(=O)c1ccc(-c2ccccc2)cc1)C(=O)O |

| IC50 [1] | IC50 (ADAMTS-4 (Agg-1)) | Structure (SMILES) |
| --- | --- | --- |
| 4 µM | 0.7 µM | Cc1cccc(Oc2ccc(OCc3ccc(-c4ccc(S(=O)(=O)N[C@@H](C(=O)O)C(C)C)cc4)cc3)cc2)n1 |
| 3.5 µM | 0.9 µM | Cc1cccc(Oc2ccc(OCc3ccc(-c4ccc(S(=O)(=O)N[C@@H](C(=O)O)C(C)C)c(F)c4)cc3)cc2)n1 |
| 3.4 µM | 1.1 µM | Cc1c(COc2ccc(-c3ccc(S(=O)(=O)N[C@@H](C(=O)O)C(C)C)cc3)cc2)oc2ccccc12 |
| 3.4 µM | 0.2 µM | CC(C)[C@@H](NS(=O)(=O)c1ccc(-c2ccc(COc3cccc(C(=O)c4ccccc4)c3)cc2)cc1)C(=O)O |
| 3.2 µM | 0.9 µM | Cc1cccc(Oc2ccc(OCc3ccc(-c4ccc(S(=O)(=O)N[C@@H](C(=O)O)C(C)C)c(Cl)c4)cc3)cc2)n1 |
| 3.2 µM | 1.9 µM | COc1cc(COc2ccc(-c3ccc(S(=O)(=O)N[C@@H](C(=O)O)C(C)C)cc3)cc2)cc(OC)c1 |
| 3 µM | 1.4 µM | CC(C)[C@@H](NS(=O)(=O)c1ccc(-c2ccc(OCc3ccc4c(c3)OCCO4)cc2)cc1)C(=O)O |
| 2.6 µM | 0.1 µM | CC(C)[C@@H](NS(=O)(=O)c1ccc(-c2ccc(COc3ccc(C(=O)C4CCCCC4)cc3)cc2)cc1)C(=O)O |
| 2.4 µM | 0.4 µM | CC(C)[C@@H](NS(=O)(=O)c1ccc(-c2ccc(COc3cccc(C(=O)C4CCCCC4)c3)cc2)cc1)C(=O)O |
| 2.4 µM | 0.4 µM | CC(C)[C@@H](NS(=O)(=O)c1ccc(-c2ccc(COc3ccc4c(c3)CCC4)cc2)cc1)C(=O)O |
| 2 µM | 0.2 µM | CC(C)[C@@H](NS(=O)(=O)c1ccc(-c2ccc(COc3ccc(C(=O)c4ccccc4)cc3)cc2)cc1)C(=O)O |
| 1.8 µM | 0.2 µM | CC(C)[C@@H](NS(=O)(=O)c1ccc(-c2ccc(COc3cc(C(F)(F)F)nc4c(C(F)(F)F)cccc34)cc2)cc1)C(=O)O |
| 0.8 µM | 0.4 µM | CC(C)[C@@H](NS(=O)(=O)c1ccc(-c2ccc(COc3ccc(C4CCCC4)cc3)cc2)cc1)C(=O)O |
| 0.4 µM | 0.4 µM | CC(C)[C@@H](NS(=O)(=O)c1ccc(-c2ccc(COc3ccc(Oc4ccccc4)cc3)cc2)cc1)C(=O)O |
| 8.4 µM | 0.1 µM | CC(C)C(=O)c1ccc(OCc2ccc(-c3ccc(S(=O)(=O)N[C@@H](C(=O)O)C(C)C)cc3)cc2)cc1 [drawing 151] |
| 8.4 µM | 0.1 µM | CC(C)C(=O)c1ccc(OCc2ccc(-c3ccc(S(=O)(=O)N[C@@H](C(=O)O)C(C)C)cc3)cc2)cc1 [drawing 152] |
| 2.5 µM | 0.1 µM | CC(C)[C@@H](NS(=O)(=O)c1ccc(-c2ccc(COc3ccc(C(=O)c4ccc(F)cc4)cc3)cc2)cc1)C(=O)O [drawing 171] |
| 2.4 µM | 0.1 µM | CC(C)[C@@H](NS(=O)(=O)c1ccc(-c2ccc(COc3ccc(C(=O)c4ccc(F)cc4)cc3)cc2)cc1)C(=O)O [drawing 172] |

| Structure (SMILES) | IC50 [1] | IC50 (ADAMTS-4 (Agg-1)) |
| --- | --- | --- |
| O=C(O)CC[C@H](NC(=O)c1ccc(-c2ccccc2)cc1)C(=O)NCc1ccc(F)cc1 | 2.8 µM | 0.2 µM |
